Like-named read-outs stand apart in the source and are kept apart here.
Columns and labels:
Format in all cases: cell-based
[1] = tested on: Proteus mirabilis (PMI) isolates; assay: microbe, parasite or virus in culture; conditions: Proteus mirabilis, read-out: MIC
Method: (§1) Method 2: MIC of Compounds Alone and Combined with Antibacterials Against Bacterial Isolates
(§2) Compounds of the present invention were assessed against genotyped bacterial strains (Table 3, 4) alone or in combination with an antibacterial (Table 2). […] Log phase bacterial suspensions were adjusted to a final density of 5.10^5 CFU/mL in cation-adjusted Mueller-Hinton broth (ca-MHB; Becton-Dickinson and Company) and added to each well (98 μL). Microplates were incubated for 16-20 h at 35° C. in ambient air. The MIC of the compounds was defined as the lowest concentration of said compounds that prevented bacterial growth as read by visual inspection. The MIC of ATB at each compound concentration was defined as the lowest concentration of ATB that prevented bacterial growth as read by visual inspection.

[2] = tested on: Salmonella typhimurium (STY) isolates; assay: MIC of compounds alone and combined with antibacterials, broth microdilution (CLSI); conditions: Salmonella enterica, TYPHIMURIUM; STY S3371; alone; read-out: MIC
Method: as §1
(§3) Compounds of the present invention were assessed against genotyped bacterial strains (Table 3, 4) alone or in combination with an antibacterial (Table 2). […]. Briefly, compounds alone according to the invention were prepared in DMSO and spotted (2 μL each) on sterile polystyrene plates (Corning, 3788). Combinations of compounds and antibiotics dilutions were prepared in DMSO and spotted (1 μL each) on sterile polystyrene plates (Corning, 3788). Log phase bacterial suspensions were adjusted to a final density of 5.10^5 CFU/mL in cation-adjusted Mueller-Hinton broth (ca-MHB; Becton-Dickinson and Company) and added to each well (98 μL). Microplates were incubated for 16-20 h at 35° C. in ambient air. The MIC of the compounds was defined as the lowest concentration of said compounds that prevented bacterial growth as read by visual inspection. The MIC of ATB at each compound concentration was defined as the lowest concentration of ATB that prevented bacterial growth as read by visual inspection.

[3] = tested on: Providencia stuartii (PST) isolates; assay: as above; conditions: Providencia stuartii, read-out: MIC
Method: as §1, §3

[4] = tested on: Enterobacter aerogenes (EAE) isolates; assay: as above; conditions: Klebsiella aerogenes, alone, read-out: MIC
Method: as §1, §2

[5] = tested on: Citrobacter koseri (CKR) isolates; assay: as above; conditions: Citrobacter koseri, alone, read-out: MIC
Method: as §1, §2

With `O=C1N2CC(c3ncco3)=CC(C2)N1OC(F)(F)C(=O)[O-].[Li+]` (stereo not shown) [AF2] the MIC ([1]; PMI UFR128, alone) was 8 µg/mL, the MIC ([1]; PMI UFR129, alone) was 4 µg/mL and the MIC ([1]; PMI UFR130, alone) was 4 µg/mL. It also gave an MIC ([1]; strain PMI UFR132, compound alone) of 4 µg/mL, an MIC [2] of 8 µg/mL and an MIC ([3]; PST UFR94, alone) of 16 µg/mL. The MIC ([3]; PST UFR95, alone) was 32 µg/mL, the MIC ([3]; PST UFR120, alone) was 8 µg/mL and the MIC ([3]; PST UFR121, alone) was 4 µg/mL. It also gave an MIC ([3]; PST UFR122, alone) of 4 µg/mL, an MIC ([3]; PST UFR123, alone) of 8 µg/mL and an MIC ([3]; PST UFR124, alone) of 8 µg/mL. It also gave an MIC ([3]; PST UFR125, alone) of 8 µg/mL, an MIC ([3]; PST UFR235, alone) of 16 µg/mL and an MIC ([3]; strain PST UFR98, compound alone) of 32 µg/mL. It also gave an MIC ([4]; EAE 49469) of 8 µg/mL, an MIC ([4]; EAE 200261) of 16 µg/mL and an MIC ([4]; EAE UFR199) of 16 µg/mL. For the same molecule, the MIC ([4]; EAE UFR201) was 4 µg/mL, the MIC ([4]; EAE UFR202) was 32 µg/mL and the MIC ([4]; EAE UFR207) was 4 µg/mL. The MIC ([4]; EAE UFR213) was 16 µg/mL, the MIC ([5]; CKO ROU) was 16 µg/mL and the MIC ([5]; CKO UFR149) was 16 µg/mL. For the same molecule, the MIC ([5]; CKO UFR150) was > 32 µg/mL.
